Earlier results in patent US8524772B2, “Controlled release of N-acetylcysteine (NAC) for reduction of systemic and/or vascular inflammation” (Tiara Pharmaceuticals, Inc., priority 2008, dated 2013).

What was measured:
LDL = conditions: in vitro
[1] = test system: lipid loaded macrophages (foam cells)

CC(=O)NC(CS)C(=O)O (stereo not drawn) [NAC, 2-acetamido-3-sulfanylpropanoic acid]
oxidative modification of LDL (LDL): inhibited
secondary oxidation of LDL by previously oxidized LDL (LDL): markedly inhibited
ability of foam cells to degrade vascular matrix [1]: reduce
